According to patent publication US4907606A, “Tobacco compositions, method and device for releasing essentially pure nicotine” (AB Leo, priority 1984, dated 1990):
Where two headings read alike, the source gives them in different places.

Assay: Bioavailability: blood plasma nicotine levels after inhalation of air from the glass columns
Assay type: in vivo
Settings: human, inhaled or intranasal, test persons abstained from nicotine for 12 h, read-out: Plasma nicotine, peak value
Experimental: Untreated tobacco was used as reference.
The bioavailability of nicotine, i.e. the blood plasma nicotine levels, after inhalation of air from the glass columns prepared as described above at 65° C. and 75° C., respectively was also investigated. The test persons had abstained from smoking or having nicotine in any other way for 12 h before the test.

In the case of CN1CCCC1c1cccnc1 (centres unmarked) [nicotine], the Cmax (column at 65 °C) is reported as 5 ng/mL and the Cmax (column at 75 °C) is reported as 10 to 15 ng/mL.
